According to paper PMC2765508 (Biochemistry, 2009):
Entries after “also recorded” stand apart in the source; their conditions may differ.

Experiments:
[1] = target: T1, human MP1 (Homo sapiens, UniProt Q5JRX3); format: biochemical; conditions: for kcat/Km: from kcat (HPLC) and Km (alternate substrate inhibition)
T1 sequence (Q5JRX3 29-1037): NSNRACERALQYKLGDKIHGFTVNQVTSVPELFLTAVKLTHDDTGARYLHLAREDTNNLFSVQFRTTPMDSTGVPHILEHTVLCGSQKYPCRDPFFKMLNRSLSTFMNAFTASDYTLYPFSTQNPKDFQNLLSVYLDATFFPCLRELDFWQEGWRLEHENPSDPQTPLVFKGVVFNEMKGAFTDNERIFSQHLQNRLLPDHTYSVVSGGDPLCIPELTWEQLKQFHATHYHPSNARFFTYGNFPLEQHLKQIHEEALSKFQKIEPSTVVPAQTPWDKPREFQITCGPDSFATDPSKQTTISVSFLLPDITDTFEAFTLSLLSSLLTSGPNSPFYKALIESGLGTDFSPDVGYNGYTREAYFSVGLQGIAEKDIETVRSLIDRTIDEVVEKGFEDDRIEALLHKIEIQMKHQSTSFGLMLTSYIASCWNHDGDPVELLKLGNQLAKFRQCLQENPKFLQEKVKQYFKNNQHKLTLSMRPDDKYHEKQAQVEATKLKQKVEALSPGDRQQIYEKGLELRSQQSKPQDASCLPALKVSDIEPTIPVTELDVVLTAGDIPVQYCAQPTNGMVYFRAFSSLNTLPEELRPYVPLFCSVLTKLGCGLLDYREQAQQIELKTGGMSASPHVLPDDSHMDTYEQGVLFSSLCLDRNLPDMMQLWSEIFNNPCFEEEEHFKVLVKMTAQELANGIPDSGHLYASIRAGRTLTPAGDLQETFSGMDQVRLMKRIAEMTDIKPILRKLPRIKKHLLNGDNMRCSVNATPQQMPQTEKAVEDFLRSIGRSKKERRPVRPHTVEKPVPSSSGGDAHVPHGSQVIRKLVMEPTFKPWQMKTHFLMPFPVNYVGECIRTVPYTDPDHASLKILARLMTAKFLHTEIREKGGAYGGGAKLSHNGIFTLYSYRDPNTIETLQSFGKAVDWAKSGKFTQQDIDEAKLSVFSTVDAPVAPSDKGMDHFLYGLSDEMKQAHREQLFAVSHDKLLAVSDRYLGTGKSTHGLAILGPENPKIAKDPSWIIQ

[2] = test system: MP1 (metallopeptidase 1, mammalian pitrilysin); test: purified recombinant human MP1
[3] = test system: insulysin; conditions: cited from earlier work
[4] = test system: protease III; conditions: cited from earlier work
[5] = test system: nardilysin; conditions: cited from earlier work
[6] = test system: MP1; test: 2 μg of MP1 in 25 mM Tris buffer, pH 7.5; conditions: human
[7] = target: T1, human MP1; format: biochemical; conditions: 27 amino acid citrate synthase presequence peptide as MP1 substrate

YGG↓F↓MTSEKSETPLV↓T↓L▼FKNA▼IIKNAYKKGE [β-endorphin]
kcat/Km [1]: 62.6 ± 5.1 M × min^−1 × 10^5

CGNLSTC▼MLG▼TYTQDFNK↓FHTFPQTAIGVGAP [Calcitonin]
kcat/Km [1]: 15.4 ± 0.6 M × min^−1 × 10^5

DAEFRHDSGYEVHHQKLVFF▼AEDVGSNKGAIIGL↓MVGGVV [β-Amyloid (1–40)]
kcat/Km [1]: 19.5 ± 1.1 M × min^−1 × 10^5

SLRRSSCFGGRMD▼RIGAQSGLGCNS▼FRY (disulfide) [Atrial natriuretic peptide]
kcat/Km [1]: 199.2 ± 18.6 M × min^−1 × 10^5

CGNLSTCMLGTYTQDFNKFHTFPQTAIGVGAP
cleaved bond [2]: C-M, first_seen; also recorded: G-T, first_seen; also recorded: K-F, minor

YGGFLRRQFKVVT
cleaved bond [2]: Y-G, minor; also recorded: F-K, minor; also recorded: K-V, first_seen

YGGFLRRIRPKLKWDNQ
cleaved bond [2]: R-I, minor; also recorded: P-K, first_seen; also recorded: Y-G, minor

Insulin
kcat/Km [1]: 0.03 ± 0.00 M × min^−1 × 10^5

RPKPQQFFGLM
cleaved bond [2]: F-F, minor; also recorded: G-L, first_seen

RPPG▼FSPFR [Bradykinin]
cleavage by insulysin [3]: not cleaved
cleavage by protease III [4]: not cleaved
cleavage by nardilysin [5]: not cleaved
kcat/Km [1]: 21.8 ± 1.2 M × min^−1 × 10^5

YGGFL
cleaved bond [2]: Y-G, first_seen

Y↓GGFLRRQFK↓VVT↓RSQED▼PNAYYEEL▼FDV [Leumorphin (porcine), Leumorphin]
kcat/Km [1]: 63.5 ± 4.5 M × min^−1 × 10^5

YGGFMTSEKSETPLVTLFKNAIIKNAYKKGE
cleaved bond [6]: Phe-M, minor; also recorded: Thr16-Leu17, minor; also recorded: Pro13-Leu14, minor; also recorded: Leu14-Val15, minor

Somatostatin
kcat/Km [1]: 41.7 ± 3.8 M × min^−1 × 10^5

RPKPQQF↓FG▼LM [Substance P]
kcat/Km [1]: 23.6 ± 2.5 M × min^−1 × 10^5

Angiotensin I
cleavage by insulysin [3]: not cleaved
cleavage by protease III [4]: not cleaved
cleavage by nardilysin [5]: not cleaved
kcat/Km [1]: 44.6 ± 4.3 M × min^−1 × 10^5

Y↓GGFLRR↓IRP▼KLKWDNQ [Dynorphin A]
kcat/Km [1]: 62.6 ± 6.8 M × min^−1 × 10^5

YGGFL [Leu-enkephalin]
kcat/Km [1]: 18.7 ± 2.1 M × min^−1 × 10^5

YADAIFTNSYRKVLGQLSARKLQDIMQQGESNQERGA
cleaved bond [2]: Y-A, minor; also recorded: G-Q, first_seen; also recorded: S-A, first_seen

Y↓ADAIFTNSYRKVLG▼QLS▼ARKL↓QDIMQQGESNQERGA [Growth Hormone Releasing factor]
kcat/Km [1]: 29.4 ± 3.4 M × min^−1 × 10^5

MALLTAAARLFGAKNASCLVLAARHAS-NH2 [citrate synthase presequence peptide]
Km [7]: 0.17 µM
kcat ([1]; 27 amino acid citrate synthase presequence peptide as MP1 substrate): 0.0183 s⁻¹

SLRRSSCFGGRMDRIGAQSGLGCNSFRY
cleaved bond [2]: D-R, first_seen; also recorded: S-F, first_seen

Y↓GGFLRRQF↓K▼VVT [Dynorphin B]
kcat/Km [1]: 46.3 ± 6.8 M × min^−1 × 10^5
